From US8580769B2, “Treatment of obesity, metabolic syndrome, and diabetes with protein kinase C inhibitors” (The United States of America as represented by the …, priority 2011, dated 2013) come the findings set out here.

Molecules are shown by their SMILES.

One test concerns the target T1, Akt2 (Homo sapiens, UniProt P31751).
T1 construct: host or cells: primary human hepatocytes
Description: Akt2 activity in human hepatocytes. It is filed as cell-based. As to the method: After thawing, the hepatocytes were distributed (approximately 10^6 cells per 100 mm plate) and incubated approximately 16 hours overnight in Dulbecco's minimal essential medium containing 5% fetal calf serum, 100 units/ml sodium-penicillin, 100 μg/ml streptomycin-sulfate, 1 μM insulin and 2 μM dexamethasone. After washing, cells were incubated first for 2 hours in William's E medium (Sigma-Aldrich, St. Louis, Mo., catalog no. W1878) containing GLUTAMAX™ (Gibco/Invitrogen, Carlsbad, Calif.), 100 units/ml sodium-penicillin, 100 μg/ml streptomycin-sulfate, 10 μM insulin, 100 nM dexamethasone, and then for 2 hours in William's E medium containing 100 units/ml sodium penicillin, 100 μg/ml streptomycin-sulfate, 100 nM dexamethasone, 0.25 mg/ml transferrin, 0.25 μg/ml sodium selenite and 10 μM insulin. Cells were then washed and incubated for 3 hours in the same medium, but lacking insulin. […]
Akt2 Assay: Akt2 enzyme activity was measured with a kit obtained from Upstate Cell Signaling, as described (Standaert et al., J. Biol. Chem. 279:24929-24934, 2004; Sajan et al., J. Lipid Res. 50:1133-1145, 2009; Sajan et al., Diabetologia 52:1197-1207, 2009; Farese et al., J. Clin. Invest. 117:2289-2301, 2007). […] Akt1/2 activation was also assessed by immunoblotting for phosphorylation of serine-473.

Test [1] has as its system AMP-activated protein kinase. The experiment in a line: AMP-activated protein kinase activity.
For the next test, the target named is T2, PKC-ζ (Homo sapiens, UniProt Q05513).
T2 construct: purchased Biovision, Mountain View, Calif
T2 sequence (Q05513 1-592): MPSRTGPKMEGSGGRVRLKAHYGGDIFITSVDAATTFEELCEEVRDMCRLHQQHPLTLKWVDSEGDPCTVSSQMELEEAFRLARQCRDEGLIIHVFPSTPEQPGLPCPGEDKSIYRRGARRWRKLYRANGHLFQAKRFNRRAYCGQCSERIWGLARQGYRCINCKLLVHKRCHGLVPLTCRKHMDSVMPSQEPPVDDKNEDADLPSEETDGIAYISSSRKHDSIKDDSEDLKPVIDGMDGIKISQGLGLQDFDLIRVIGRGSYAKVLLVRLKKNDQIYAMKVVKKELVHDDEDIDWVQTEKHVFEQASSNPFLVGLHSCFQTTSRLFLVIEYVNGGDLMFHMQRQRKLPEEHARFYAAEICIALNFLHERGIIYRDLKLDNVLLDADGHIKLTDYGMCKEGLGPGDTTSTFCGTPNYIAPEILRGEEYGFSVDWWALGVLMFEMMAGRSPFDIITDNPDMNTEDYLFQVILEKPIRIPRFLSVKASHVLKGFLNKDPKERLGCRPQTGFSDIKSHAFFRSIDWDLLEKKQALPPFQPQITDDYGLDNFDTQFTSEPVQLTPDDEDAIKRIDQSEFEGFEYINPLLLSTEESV
The experiment in a line: PKC-ζ inhibition. It is filed as biochemical. As to the method:
For assays of recombinant PKC-ι and PKC-ζ (10 ng/assay; Biovision, Mountain View, Calif.), […] phosphatidylinositol-3,4,5-(PO4)3 (PIP3; Matreya, Pleasant Gap, Pa.) ±1 ng phosphoinositide-dependent kinase-1 (PDK1; Upstate Cell Signaling) was added to maximally activate and thus better define aPKC activity.

In a further test the test system is FoxO1. The experiment in a line: ser-256 phosphorylation of hepatic FoxO1 in wild type mice after a single ICAPP injection. It is filed as in vivo, mouse. The settings on record: 1.5 mg/kg ICAPP s.c., basally and in response to insulin. As to the method: Western Analyses: Western analyses were conducted as described (Standaert et al., J. Biol. Chem. 279:24929-24934, 2004; Sajan et al., J. Lipid Res. 50:1133-1145, 2009; Sajan et al., Diabetologia 52:1197-1207, 2009; Farese et al., J. Clin. Invest. 117:2289-2301, 2007), using the following antibodies/antisera for immunodetection after resolution of lysate proteins by SDS-PAGE: rabbit polyclonal anti-IRS-1 antiserum (Upstate Cell Signaling); rabbit polyclonal anti-IRS-2 antiserum (Santa Cruz Technologies); rabbit polyclonal anti-PKC-ζ/λ antiserum (Santa Cruz Biotechnologies); rabbit polyclonal anti-PKC-ζ antiserum (gift of Dr. Todd Sacktor); mouse monoclonal anti-PKC-ι/ζ antibodies (Transduction Laboratories/BD, East Rutherford, N.J.); rabbit polyclonal anti-Akt1/2 antiserum (Upstate Cell Signaling); rabbit polyclonal anti-phospho-serine -473-Akt1/2 antiserum (New England BioLabs, Beverly, Mass.): rabbit polyclonal anti-phospho-threonine-410-[…]/-403-PKC-ι/λ antiserum (Upstate Cell Signaling); rabbit polyclonal anti-phospho-threonine-560-PKC-ζ/-555-PKC-ι/λ antiserum (Invitrogen); and anti-p65/RelA subunit of NFκB (Santa Cruz Biotechnologies). […]
Wild type mice were treated with 1.5 mg/kg ICAPP subcutaneously and after 2-30 hours, the mice were treated with 1 U/kg insulin 15 minutes before euthanasia. aPKC activity was determined as described in Example 1.

T1 sequence (P31751 whole entry): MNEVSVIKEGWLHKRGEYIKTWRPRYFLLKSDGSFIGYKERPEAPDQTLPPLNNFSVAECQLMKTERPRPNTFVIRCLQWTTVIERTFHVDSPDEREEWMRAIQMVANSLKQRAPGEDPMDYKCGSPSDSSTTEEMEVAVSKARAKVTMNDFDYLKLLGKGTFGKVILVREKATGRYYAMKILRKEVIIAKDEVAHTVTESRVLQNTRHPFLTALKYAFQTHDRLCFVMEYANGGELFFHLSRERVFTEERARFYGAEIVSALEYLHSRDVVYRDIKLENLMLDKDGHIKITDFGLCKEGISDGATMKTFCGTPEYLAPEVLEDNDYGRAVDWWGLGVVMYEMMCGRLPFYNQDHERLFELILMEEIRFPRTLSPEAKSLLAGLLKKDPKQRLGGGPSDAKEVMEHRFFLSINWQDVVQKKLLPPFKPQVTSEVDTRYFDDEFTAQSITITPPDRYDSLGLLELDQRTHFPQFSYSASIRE

Regarding `O=C([O-])CC([S][Au])C(=O)[O-]` (stereo not drawn) [ATM, aurothiomalate, reference compound], the “insulin-induced increases in Akt activity” value at Akt2 is “neither ICAPP nor ATM inhibited”. The “AMP-activated protein kinase activity” value in test [1] is “neither ICAPP nor ATM altered”.

As to `NC(=O)c1ncn([C@@H]2C[C@H](COP(=O)(O)O)[C@@H](O)[C@H]2O)c1N` [ICAPP, 1H-imidazole-4-carboxamide, 5-amino-1-[2,3-dihydroxy-4-[(phosphonooxy)methyl]cyclopentyl]-[1R-(1α,2β,3β,4α)]], on PKC-ζ, the “inhibition of PKC-ζ” value is “not inhibited”. Also, on Akt2, the “insulin-induced increases in Akt activity” value is reported as “neither ICAPP nor ATM inhibited”. In test [1], the “AMP-activated protein kinase activity” value is recorded as “neither ICAPP nor ATM altered”. Moreover, the “ser-256 phosphorylation of hepatic FoxO1” value in the test on FoxO1 is “increased”.
